Laboratory results: patent publication US7135467B2, “HIV integrase inhibitors” (priority 2003, dated 2006)

Target: T1, HIV-integrase (recombinant integrase) (Human immunodeficiency virus type 1 group M subtype B, UniProt P12497)
T1 construct: Recombinant integrase (0.26 ng) was incubated with the beads
Assay: HIV-Integrase Inhibition Activity (SPA bead strand-transfer assay)
Format: biochemical
Settings: recombinant integrase on biotin labeled substrate DNA/SPA beads, P33 labeled target DNA; read-out: Activity (IC50 against HIV-integrase)
Protocol: To evaluate in-vitro activity against HIV-integrase, 5 pmole of biotin labeled substrate DNA was bound to 100 μg of Streptavidin coated PVT SPA beads (Amersham Pharmacia Biotech). Recombinant integrase (0.26 ng) was incubated with the beads for 90 min at 37° C. Unbound enzyme was removed by washing the complex followed by addition of inhibitors and 0.1 fmol of P33 labeled target DNA. The reaction was stopped by adding EDTA to a final concentration of 10 mM. Samples were counted in TopCountNXT (Packard) and the CPM was used as a measure of integration. The reaction condition was as described in A. Engelman and R. Craigie, J. Virol. 69, 5908–5911 (1995). The sequences of substrate and target DNA were described in Nucleic Acid Research 22, 1121–1122 (1994). Activity equal to A refers to a compound having IC50=0.003 to 0.10 μM while B and C denote compounds the following IC50=0.1 to 1.0 μM and IC50≧1.0 μM respectively.

## Cn1c(N2CCCCS2(=O)=O)nc(C(=O)NCc2ccc(F)c(F)c2)c(O)c1=O [Compound 15, N-[(3,4-difluorophenyl)methyl]-1,6-dihydro-5-hydroxy-1-methyl-6-oxo-2-(tetrahydro-1,1-dioxido-2H-1,2-thiazin-2-yl)-4-pyrimidinecarboxamide]
  IC50: 3 to 100 nM

## COc1ccc(CCNC(=O)c2nc(N3CCCCS3(=O)=O)n(C)c(=O)c2O)cc1 [Compound 27, 1,6-dihydro-5-hydroxy-N-[2-(4-methoxyphenyl)ethyl]-1-methyl-6-oxo-2-(tetrahydro-1,1-dioxido-2H-1,2-thiazin-2-yl)-4-pyrimidinecarboxamide]
  IC50: ≥ 1000 nM

## Cc1ccc(CCNC(=O)c2nc(N3CCCCS3(=O)=O)n(C)c(=O)c2O)cc1 [Compound 40, 1,6-dihydro-5-hydroxy-1-methyl-N-[2-(4-methylphenyl)ethyl]-6-oxo-2-(tetrahydro-1,1-dioxido-2H-1,2-thiazin-2-yl)-4-pyrimidinecarboxamide]
  IC50: ≥ 1000 nM

## Cn1c(N2CCN(CCO)CC2)nc(C(=O)NCc2ccc(F)cc2)c(O)c1=O [Compound 67, N-[(4-fluorophenyl)methyl]-1,6-dihydro-5-hydroxy-2-[4-(2-hydroxyethyl)-1-piperazinyl]-1-methyl-6-oxo-4-pyrimidinecarboxamide]
  IC50: 3 to 100 nM

## Cc1cc(CNC(=O)c2nc(N3CCN(c4ncccn4)CC3)n(C)c(=O)c2O)ccc1F [Compound 78, N-[(4-fluoro-3-methylphenyl)methyl]-1,6-dihydro-5-hydroxy-1-methyl-6-oxo-2-[4-(2-pyrimidinyl)-1-piperazinyl]-4-pyrimidinecarboxamide]
  IC50: 3 to 100 nM

## Cc1cc(CNC(=O)c2nc(N3CCC(O)CC3)n(C)c(=O)c2O)ccc1F [Compound 66, N-[(4-fluoro-3-methylphenyl)methyl]-1,6-dihydro-5-hydroxy-2-(4-hydroxy-1-piperidinyl)-1-methyl-6-oxo-4-pyrimidinecarboxamide]
  IC50: 3 to 100 nM

## CNC(=O)N1CCN(c2nc(C(=O)NCc3ccc(F)cc3)c(O)c(=O)n2C)CC1 [Compound 87, N-[(4-fluorophenyl)methyl]-1,6-dihydro-5-hydroxy-1-methyl-2-[4-[(methylamino)carbonyl]-1-piperazinyl]-6-oxo-4-pyrimidinecarboxamide]
  IC50: 3 to 100 nM

## Cn1c(N2CCCCS2(=O)=O)nc(C(=O)NCc2cc(F)cc(F)c2)c(O)c1=O [Compound 47, N-[(3,5-difluorophenyl)methyl]-1,6-dihydro-5-hydroxy-1-methyl-6-oxo-2-(tetrahydro-1,1-dioxido-2H-1,2-thiazin-2-yl)-4-pyrimidinecarboxamide]
  IC50: 100 to 1000 nM

## Cc1ccc(CNC(=O)c2nc(N3CCCCS3(=O)=O)n(C)c(=O)c2O)cc1C [Compound 19, N-[(3,4-dimethylphenyl)methyl]-1,6-dihydro-5-hydroxy-1-methyl-6-oxo-2-(tetrahydro-1,1-dioxido-2H-1,2-thiazin-2-yl)-4-pyrimidinecarboxamide]
  IC50: 3 to 100 nM

## Cn1c(N2CCCCS2(=O)=O)nc(C(=O)NCc2ccc(F)cc2F)c(O)c1=O [Compound 17, N-[(2,4-difluorophenyl)methyl]-1,6-dihydro-5-hydroxy-1-methyl-6-oxo-2-(tetrahydro-1,1-dioxido-2H-1,2-thiazin-2-yl)-4-pyrimidinecarboxamide]
  IC50: 3 to 100 nM

## Cn1c(N2CCCCS2(=O)=O)nc(C(=O)NCCc2cccc(Cl)c2)c(O)c1=O [Compound 30, N-[2-(3-chlorophenyl)ethyl]-1,6-dihydro-5-hydroxy-1-methyl-6-oxo-2-(tetrahydro-1,1-dioxido-2H-1,2-thiazin-2-yl)-4-pyrimidinecarboxamide]
  IC50: 100 to 1000 nM

## Cc1ccccc1CNC(=O)c1nc(N2CCCCS2(=O)=O)n(C)c(=O)c1O [Compound 37, 1,6-dihydro-5-hydroxy-1-methyl-N-[(2-methylphenyl)methyl]-6-oxo-2-(tetrahydro-1,1-dioxido-2H-1,2-thiazin-2-yl)-4-pyrimidinecarboxamide]
  IC50: 100 to 1000 nM

## Cn1c(N2CCCCS2(=O)=O)nc(C(=O)NCc2cccc(F)c2)c(O)c1=O [Compound 3, N-[(3-fluorophenyl)methyl]-1,6-dihydro-5-hydroxy-1-methyl-6-oxo-2-(tetrahydro-1,1-dioxido-2H-1,2-thiazin-2-yl)-4-pyrimidinecarboxamide]
  IC50: 100 to 1000 nM

## Cn1c(N2CCCCS2(=O)=O)nc(C(=O)NCCc2c[nH]c3ccccc23)c(O)c1=O [Compound 49, 1,6-dihydro-5-hydroxy-N-[2-(1H-indol-3-yl)ethyl]-1-methyl-6-oxo-2-(tetrahydro-1,1-dioxido-2H-1,2-thiazin-2-yl)-4-pyrimidinecarboxamide]
  IC50: ≥ 1000 nM

## Cc1cc(CNC(=O)c2nc(-n3ncccc3=O)n(C)c(=O)c2O)ccc1F [Compound 101, N-[(4-fluoro-3-methylphenyl)methyl]-1,6-dihydro-5-hydroxy-1-methyl-6-oxo-2-(6-oxo-1(6H)-pyridazinyl)-4-pyrimidinecarboxamide]
  IC50: 3 to 100 nM

## Cn1c(N2CCC(O)CC2)nc(C(=O)NCc2ccc(F)cc2)c(O)c1=O [Compound 65, N-[(4-fluorophenyl)methyl]-1,6-dihydro-5-hydroxy-2-(4-hydroxy-1-piperidinyl)-1-methyl-6-oxo-4-pyrimidinecarboxamide]
  IC50: 3 to 100 nM

## Cc1ccc(CNC(=O)c2nc(N3CCCCS3(=O)=O)n(C)c(=O)c2O)cc1 [Compound 8, 1,6-dihydro-5-hydroxy-1-methyl-N-[(4-methylphenyl)methyl]-6-oxo-2-(tetrahydro-1,1-dioxido-2H-1,2-thiazin-2-yl)-4-pyrimidinecarboxamide]
  IC50: 3 to 100 nM

## COc1ccccc1CCNC(=O)c1nc(N2CCCCS2(=O)=O)n(C)c(=O)c1O [Compound 38, 1,6-dihydro-5-hydroxy-N-[2-(2-methoxyphenyl)ethyl]-1-methyl-6-oxo-2-(tetrahydro-1,1-dioxido-2H-1,2-thiazin-2-yl)-4-pyrimidinecarboxamide]
  IC50: ≥ 1000 nM

## Cn1c(N2CCCCS2(=O)=O)nc(C(=O)NCc2cccs2)c(O)c1=O [Compound 34, 1,6-dihydro-5-hydroxy-1-methyl-6-oxo-2-(tetrahydro-1,1-dioxido-2H-1,2-thiazin-2-yl)-N-(2-thienylmethyl)-4-pyrimidinecarboxamide]
  IC50: 100 to 1000 nM

## CNC(=O)N1CCN(c2nc(C(=O)NCc3ccc(F)c(C)c3)c(O)c(=O)n2C)CC1 [Compound 88, N-[(4-fluoro-3-methylphenyl)methyl]-1,6-dihydro-5-hydroxy-1-methyl-2-[4-[(methylamino)carbonyl]-1-piperazinyl]-6-oxo-4-pyrimidinecarboxamide]
  IC50: 3 to 100 nM

## Cc1ncn(-c2nc(C(=O)NCc3ccc(F)cc3)c(O)c(=O)n2C)n1 [Compound 58, N-[(4-fluorophenyl)methyl]-1,6-dihydro-5-hydroxy-1-methyl-2-(3-methyl-1H-1,2,4-triazol-1-yl)-6-oxo-4-pyrimidinecarboxamide]
  IC50: 100 to 1000 nM

## CC(=O)N1CCN(c2nc(C(=O)NCc3ccc(F)c(C)c3)c(O)c(=O)n2C)CC1 [Compound 72, 2-(4-acetyl-1-piperazinyl)-N-[(4-fluoro-3-methylphenyl)methyl]-1,6-dihydro-5-hydroxy-1-methyl-6-oxo-4-pyrimidinecarboxamide]
  IC50: 3 to 100 nM

## Cn1c(N2CCCCS2(=O)=O)nc(C(=O)NCc2ccccc2Cl)c(O)c1=O [Compound 36, N-[(2-chlorophenyl)methyl]-1,6-dihydro-5-hydroxy-1-methyl-6-oxo-2-(tetrahydro-1,1-dioxido-2H-1,2-thiazin-2-yl)-4-pyrimidinecarboxamide]
  IC50: 100 to 1000 nM

## COc1ccc(CNC(=O)c2nc(N3CCCCS3(=O)=O)n(C)c(=O)c2O)cc1 [Compound 10, 1,6-dihydro-5-hydroxy-N-[(4-methoxyphenyl)methyl]-1-methyl-6-oxo-2-(tetrahydro-1,1-dioxido-2H-1,2-thiazin-2-yl)-4-pyrimidinecarboxamide]
  IC50: 3 to 100 nM

## COc1ccccc1CNC(=O)c1nc(N2CCCCS2(=O)=O)n(C)c(=O)c1O [Compound 24, 1,6-dihydro-5-hydroxy-N-[(2-methoxyphenyl)methyl]-1-methyl-6-oxo-2-(tetrahydro-1,1-dioxido-2H-1,2-thiazin-2-yl)-4-pyrimidinecarboxamide]
  IC50: 3 to 100 nM

## Cn1c(N2CCCCS2(=O)=O)nc(C(=O)NCc2cc(Cl)ccc2Cl)c(O)c1=O [Compound 42, N-[(2,5-dichlorophenyl)methyl]-1,6-dihydro-5-hydroxy-1-methyl-6-oxo-2-(tetrahydro-1,1-dioxido-2H-1,2-thiazin-2-yl)-4-pyrimidinecarboxamide]
  IC50: 100 to 1000 nM

## Cn1c(N2CCCCS2(=O)=O)nc(C(=O)NCc2ccc(Cl)cc2)c(O)c1=O [Compound 4, N-[(4-chlorophenyl)methyl]-1,6-dihydro-5-hydroxy-1-methyl-6-oxo-2-(tetrahydro-1,1-dioxido-2H-1,2-thiazin-2-yl)-4-pyrimidinecarboxamide]
  IC50: 3 to 100 nM

## Cn1c(N2CCN(C(=O)N3CCNC3=O)CC2)nc(C(=O)NCc2ccc(F)cc2)c(O)c1=O [Compound 85, N-[(4-fluorophenyl)methyl]-1,6-dihydro-5-hydroxy-1-methyl-6-oxo-2-[4-[(2-oxo-1-imidazolidinyl)carbonyl]-1-piperazinyl]-4-pyrimidinecarboxamide]
  IC50: 3 to 100 nM

## CC(=O)N1CCN(c2nc(C(=O)NCc3ccc(F)cc3)c(O)c(=O)n2C)CC1 [Compound 71, 2-(4-acetyl-1-piperazinyl)-N-[(4-fluorophenyl)methyl]-1,6-dihydro-5-hydroxy-1-methyl-6-oxo-4-pyrimidinecarboxamide]
  IC50: 3 to 100 nM
